Blank lines part the entries; values can stand above or below the molecule they belong to.
Tests used:
[1] = molecular target: T1, hLPYK (Homo sapiens, UniProt P30613); experiment: enzyme kinetics, allosteric linkage analysis; format: biochemical; conditions: allosteric inhibitor site; effector binding in absence of PEP; read-out: Kix-Ala
T1 construct: gene PKLR; full-length liver isozyme; homotetramer; purified or partially purified
From the text: enzyme kinetics, allosteric linkage analysis on hLPYK | (ii) Kix-Ala, the binding of Ala

[2] = molecular target: T1, hLPYK; experiment: enzyme kinetics, allosteric linkage analysis; format: biochemical; conditions: allosteric activator site; effector binding in absence of PEP
[3] = molecular target: T2, rM1PYK (Oryctolagus cuniculus, UniProt P11974); experiment: X-ray crystal structure, […] Å; format: binding; conditions: active site of some subunits; may stem from the crystallisation medium
T2 construct: gene PKM; rabbit muscle M1 isozyme; homotetramer; crystal structures
T2 sequence (P11974 2-531): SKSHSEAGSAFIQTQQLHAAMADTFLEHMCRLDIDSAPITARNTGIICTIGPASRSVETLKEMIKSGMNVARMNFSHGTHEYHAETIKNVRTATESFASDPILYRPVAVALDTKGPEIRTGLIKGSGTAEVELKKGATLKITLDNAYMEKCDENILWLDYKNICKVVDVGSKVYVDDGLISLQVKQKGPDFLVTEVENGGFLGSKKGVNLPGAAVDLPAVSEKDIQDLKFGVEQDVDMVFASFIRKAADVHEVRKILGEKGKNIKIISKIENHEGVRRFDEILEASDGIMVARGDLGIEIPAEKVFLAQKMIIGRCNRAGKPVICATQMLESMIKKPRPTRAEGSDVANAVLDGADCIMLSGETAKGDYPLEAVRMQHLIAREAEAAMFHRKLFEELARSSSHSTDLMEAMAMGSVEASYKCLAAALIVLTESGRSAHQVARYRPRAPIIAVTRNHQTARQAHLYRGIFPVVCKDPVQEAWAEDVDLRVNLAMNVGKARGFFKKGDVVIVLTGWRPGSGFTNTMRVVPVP

T1 sequence (P30613 1-543 isoform P30613-2): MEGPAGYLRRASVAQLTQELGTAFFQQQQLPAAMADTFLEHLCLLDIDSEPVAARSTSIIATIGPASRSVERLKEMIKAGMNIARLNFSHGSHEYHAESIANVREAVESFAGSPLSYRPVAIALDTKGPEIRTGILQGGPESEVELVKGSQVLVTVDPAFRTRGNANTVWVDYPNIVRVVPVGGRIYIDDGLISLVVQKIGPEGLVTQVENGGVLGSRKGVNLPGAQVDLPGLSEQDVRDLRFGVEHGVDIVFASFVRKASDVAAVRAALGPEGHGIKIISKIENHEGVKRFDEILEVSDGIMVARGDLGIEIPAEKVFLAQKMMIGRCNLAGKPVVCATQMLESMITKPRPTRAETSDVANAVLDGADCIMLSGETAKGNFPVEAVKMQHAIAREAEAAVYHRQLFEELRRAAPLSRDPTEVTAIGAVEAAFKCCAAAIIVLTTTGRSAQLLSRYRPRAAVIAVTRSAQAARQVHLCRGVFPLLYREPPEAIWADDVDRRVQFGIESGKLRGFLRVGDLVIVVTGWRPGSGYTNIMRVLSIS

Kd [1]: 250 µM
Compound: C[C@H](N)C(=O)O [alanine]

Kix-FBP [2]: (iii) Kix-FBP, the binding of Fru-1,6-BP
Compound: O=P(O)(O)OC[C@H]1OC(O)(COP(=O)(O)O)[C@@H](O)[C@@H]1O (stereo partly drawn) [fructose-1,6-bisphosphate]

Compound: O=C(O)CCC(=O)O [succinate]
X-ray crystal structure, 2.2 Å [3]: active sites are populated by either a phosphonate analogue of PEP or succinate
